Results as given in US6706289B2, “Methods and compositions for enhanced delivery of bioactive molecules” (priority 2000, dated 2004).
Where two headings read alike, the source gives them in different places.

Tests used:
[1] = format: physicochemical
Method: (§1) Core loading measurement of the microspheres was done by dissolving 10 mg of microspheres in 50% acetonitrile followed by centrifugation to pellet the insoluble polymer. Aliquots were analyzed by RP-HPLC and compared to representative standards prepared in 50% acetonitrile. […] The suspensions were vortexed and incubated at 37° C. After 1 hour, aliquots were removed, filtered and analyzed for the amount released by RP-HPLC.

[2] = Mean particle size of microparticles estimated from SEM; format: physicochemical
[3] = Initial release at 1 h, in vitro dissolution of microparticles; format: physicochemical; conditions: Monophase microparticles; PBS (50 mM, pH 7.2), 0.02% Tween 20, 25% EtOH, 37° C.
Method: as §1

[4] = tested on: normal rats; assay: Hypoglycemic effect: blood glucose levels after subcutaneous administration; format: in vivo
Method: PEG-Insulin PLGA microspheres and an equivalent dose of free insulin were administered subcutaneously to normal rats. Blood was drawn periodically and anticoagulated. Blood glucose levels were measured by standard tests.

[5] = Double-emulsion (w1/o/w2) PLGA microparticles

## Insulin: recombinant human insulin; PLGA microparticles of Examples 14 and 16
[1]; [5]
  CL—Coreload (wt % of active in microparticle as isolated): 0.23%
[1]; Monophase PLGA microparticles
  CL—Coreload (wt % of active in microparticle as isolated): 0.6%
[2]; [5]
  PS—Mean Particle Size (estimated from SEM): 100-350 μm
[2]; Monophase PLGA microparticles
  PS—Mean Particle Size (estimated from SEM): 30-100 μm

## pegylated GM-CSF: GM-CSF conjugated to tresyl-monomethoxy-polyethylene glycol (MW=5000 daltons); paper example
[2]; PLGA microspheres (w/o/w), collected on 25 micron sieve
  size range of resulting microspheres: 25-200 μm

## C[C@@H](NC(=O)[C@@H](N)Cc1ccc(O)cc1)C(=O)NCC(=O)N[C@@H](Cc1ccccc1)C(=O)NNC(=O)[C@H](Cc1ccccc1)NC(=O)CNC(=O)[C@@H](C)NC(=O)[C@@H](N)Cc1ccc(O)cc1 [Biphalin]
[1]; [5]
  CL—Coreload (wt % of active in microparticle as isolated): 0.24%
  EE—Encapsulation Efficiency (% of active encapsulated in process): 14.28%
[1]; Monophase PLGA microparticles
  CL—Coreload (wt % of active in microparticle as isolated): 0.36%
  EE—Encapsulation Efficiency (% of active encapsulated in process): 3.64%
[2]; [5]
  PS—Mean Particle Size (estimated from SEM): 50-250 μm
[2]; Monophase PLGA microparticles
  PS—Mean Particle Size (estimated from SEM): 20-100 μm
[3]
  IR—Initial Release at 1 h from in vitro dissolution: 49.4%

## PEG-Insulin: Human insulin covalently modified with polyethylene glycol, mPEG(5000)-SPA; PLGA microparticles of Examples 15 and 17
[2]; [5]
  PS—Mean Particle Size (estimated from SEM): 50-250 μm
[2]; Monophase PLGA microparticles
  PS—Mean Particle Size (estimated from SEM): 50-100 μm
[4]; Time 0 hr
  % BGL (glucose normalized to a percentage of basal levels): 100%
[4]; Time 1 hr
  % BGL (glucose normalized to a percentage of basal levels): 111.1%
[4]; Time 2 hr
  % BGL (glucose normalized to a percentage of basal levels): 86.5%
[4]; Time 4 hr
  % BGL (glucose normalized to a percentage of basal levels): 97%
[4]; Time 6 hr
  % BGL (glucose normalized to a percentage of basal levels): 98.5%
[4]; Time 8 hr
  % BGL (glucose normalized to a percentage of basal levels): 82%
[4]; Time 12 hr
  % BGL (glucose normalized to a percentage of basal levels): 88.8%
